Patent US6255092A, “Stereospecific alcohol dehydrogenase isolated from Candida parapsilosis, amino acid and DNA sequences therefor, and method of preparation thereof” (Daicel Chemical Industries Ltd., priority 1993, dated 2001)
Read-outs that look alike come from different tables or passages of the source.

Columns and labels:
[1] = target: T1, secondary alcohol dehydrogenase (Lodderomyces parapsilosis, UniProt O42703)
From the text: (§1) One unit of enzyme was defined as the amount of enzyme necessary to catalyze the formation of 1 μmol of NADH per min under the assay conditions.

[2] = target: T1, secondary alcohol dehydrogenase; experiment: biochemical; format: biochemical, Candida parapsilosis; design: full length 336 aa, about 40 kDa; gene also expressed in E. coli JM109 (pKK-CPA1); details: for remaining activity at 1000 µM: read-out: Relative activity (remaining activity)
Method: After said enzyme was incubated at 30° C. for 30 min in the presence of various reagents, the remaining activity was assayed and expressed as the percentage relative to that (100%) of the untreated enzyme (Table 5).

[3] = target: T1, secondary alcohol dehydrogenase; experiment: Substrate specificity: reducing activity with ketones/aldehydes (NADH); format: biochemical, Candida parapsilosis; design: full length 336 aa, about 40 kDa; gene also expressed in E. coli JM109 (pKK-CPA1); details: reduction, coenzyme NADH, relative to 2-butanone reducing activity (100%)
[4] = pH optimum of (S)-2-butanol oxidizing activity; format: biochemical, Candida parapsilosis; details: KPB, Tris-HCl and Briton-Robinson buffer
From the text: as §1

[5] = pH optimum of 2-butanone reducing activity; format: biochemical, Candida parapsilosis; details: NADH, KPB, Tris-HCl and Briton-Robinson buffer
[6] = Specific activity of the purified enzyme, standard assay; format: biochemical, Candida parapsilosis; details: purified enzyme after Mono-Q, (S)-2-butanol, pH 9.0, 30° C.
Method: The wet cells thus obtained were disrupted in a high pressure cell disintegrator, and centrifuged to remove cell debris. To the cell-free extract protamine sulfate was added to remove nucleic acids and microsomes. After centrifugation, the supernatant was brought to 70% saturation with ammonium sulfate, and the precipitate was collected, subjected to anion exchange chromatography on Q-Sepharose FF, eluted with a density gradient of NaCl, and the peak fraction containing said secondary alcohol dehydrogenase activity was collected. The active fraction was then subjected to hydrophobic chromatography on a column of phenyl-Sepharose equilibrated with a buffer containing 1.62 M ammonium sulfate, and the active fraction was eluted by reducing the ammonium sulfate concentration to 0 M (the enzyme activity was assayed as described hereinbefore). After the active fraction was added to a Red Sepharose affinity column, the unretained fraction was subjected to a Superdex 200 gel filtration. The recovered active fraction was subjected to anion exchange chromatography on a Mono Q column and eluted with a density gradient of NaCl. Only active fractions which gave a single band in the purity test on SDS-PAGE were collected.

[7] = Optimum reaction temperature, standard assay; format: biochemical, Candida parapsilosis
Method: The secondary alcohol dehydrogenase activity was assayed under the standard assay conditions at different temperature as shown in Table 2.

[8] = Thermostability of the purified enzyme; format: physicochemical, Candida parapsilosis; details: 40° C. for 10 min, pH 8.0, relative to the original activity
Method: After the purified enzyme was incubated at pH 8.0 and 30° C.-70° C. for 10 min, the remaining activity was assayed. Even after the incubation at 40° C. for 10 min, more than 90% of the original enzyme activity was retained (FIG. 5).

[9] = relative to that for ethanol; cited from earlier work
[10] = oxidation, substrate 5 mM, coenzyme NAD+, relative to (S)-2-butanol oxidizing activity (100%)
[11] = inhibitor 1 mM, 30° C. for 30 min, relative to untreated enzyme (100%)

Molecule: CCCCCCC(C)O (racemic) [(RS)-2-Octanol]
- Relative activity [1, 10]: 39.2%

Molecule: O[C@H](CS)[C@H](O)CS (racemic) [Dithiothreitol]
- Inhibition of the enzyme activity (in words) [2]: markedly inhibited
- remaining activity at 1000 µM [2, 11]: 0%

Molecule: CCC(C)=O [2-Butanone]
- Relative activity ([3]; substrate 100 mM): 100.0%

Molecule: CC(=O)C(C)(C)O [3-Hydroxy-3-methyl-2-butanone]
- Relative activity ([3]; substrate 100 mM): 18.5%

Molecule: CC(=O)CCO [4-Hydroxy-2-butanone]
- Relative activity ([3]; substrate 100 mM): 41.2%

Molecule: CC(C)CC(C)O (stereo not shown) [4-Methyl-2-pentanol]
- Relative activity ([1]; oxidation, substrate 20 mM, coenzyme NAD+, relative to (S)-2-butanol oxidizing activity (100%)): 40.8%

Molecule: C[C@@H](O)c1ccccc1 [(R)-1-Phenylethanol]
- Relative activity [1]: 1.1

Molecule: CCCCCC[C@@H](C)O [(R)-2-Octanol]
- Relative activity [1, 10]: 0.0%

Molecule: C[C@H](O)c1ccccc1 [(S)-1-Phenylethanol]
- Relative activity [1]: 89.3

Molecule: CCCCCC[C@H](C)O [(S)-2-Octanol]
- Relative activity [1, 10]: 67.7%

Molecule: CC(C)=O [Acetone]
- Relative activity ([3]; substrate 100 mM): 123.4%

Molecule: CC(=O)c1ccccc1 [Acetophenone]
- Relative activity ([3]; substrate 20 mM): 121.8%

Molecule: O=S(=O)([O-])[O-].[Cu+2] [CuSO4]
- Relative activity (remaining activity) [2, 11]: 25.5%

Molecule: OC1CCCCC1 [Cyclohexanol]
- Relative activity [1]: 52.8

Molecule: O=C(O)CN(CCN(CC(=O)O)CC(=O)O)CC(=O)O [Ethylenediaminetetraacetic acid, Ethylenediamine-tetraacetic acid]
- Inhibition of the enzyme activity (in words) [2]: not
- remaining activity at 1000 µM [2]: 102%

Molecule: [Cl][Hg][Cl] [HgCl2, mercuric chloride]
- Inhibition of the enzyme activity (in words) [2]: markedly inhibited
- Relative activity (remaining activity) [2, 11]: 0.0%

Molecule: CO [Methanol]
- Relative activity [1]: 0.2

Molecule: CCN1C(=O)C=CC1=O [N-Ethylmaleimide]
- Inhibition of the enzyme activity (in words) [2]: inhibited
- remaining activity at 1000 µM [2, 11]: 21.2%

Molecule: NO [NH2 OH]
- Relative activity (remaining activity) ([2]; inhibitor 0.01 mM, 30° C. for 30 min, relative to untreated enzyme (100%)): 92.7%

Molecule: [N-]=[N+]=[N-].[Na+] [NaN3]
- Relative activity (remaining activity) ([2]; inhibitor 0.02(%), 30° C. for 30 min, relative to untreated enzyme (100%)): 89.9%

Molecule: O=S(=O)(F)Cc1ccccc1 [Phenylmethanesulfonyl fluoride, Phenylmethane-sulfonyl fluoride]
- Relative activity (remaining activity) [2, 11]: 69.0%

Molecule: CCC=O [Propionaldehyde]
- Relative activity ([3]; substrate 100 mM): 76.2%

Molecule: [Cl-].[Cl-].[Zn+2] [ZnCl2, zinc chloride]
- Inhibition of the enzyme activity (in words) [2]: markedly inhibited
- Relative activity (remaining activity) [2, 11]: 16.4%

Molecule: OCCS [b-Mercaptoethanol, 2-mercaptoethanol]
- Inhibition of the enzyme activity (in words) [2]: markedly inhibited
- remaining activity at 1000 µM [2, 11]: 3.2%

Molecule: NC(=O)CI [iodoacetamide]
- Inhibition of the enzyme activity (in words) [2]: markedly inhibited

Molecule: c1cnc2c(c1)ccc1cccnc12 [o-Phenanthroline]
- Inhibition of the enzyme activity (in words) [2]: inhibited
- remaining activity at 1000 µM [2, 11]: 19%

Molecule: O=C(O)c1cc[c]([Hg][Cl])cc1 [p-Chloromercuribenzoic acid, p-Chloromercuri-benzoic acid]
- Inhibition of the enzyme activity (in words) [2]: markedly inhibited
- Relative activity (remaining activity) ([2]; inhibitor 0.05 mM, 30° C. for 30 min, relative to untreated enzyme (100%)): 0.0%
- Inhibition of the enzyme activity (in words) ([2]; listed as p-mercuribenzoic acid): inhibited

B1: secondary alcohol dehydrogenase: NAD+-dependent stereospecific secondary alcohol dehydrogenase purified from Candida parapsilosis IFO 1396, SEQ. ID NO: 2 (protein)
chain: MSIPSSQYGFVFNKQSGLNLRNDLPVHKPKAGQLLLKVDAVGLCHSDLHVIYEGLDCGDNYVMGHEIAGTVAAVGDDVINYKVGDRVACVGPNGCGGCKYCRGAIDNVCKNAFGDWFGLGYDGGYQQYLLVTRPRNLSRIPDNVSADVAAASTDAVLTPYHAIKMAQVSPTSNILLIGAGGLGGNAIQVAKAFGAKVTVLDKKKEARDQAKKLGADAVYETLPESISPGSFSACFDFVSVQATFDVCQKYVEPKGVIMPVGLGAPNLSFNLGDLALREIRILGSFWGTTNDLDDVLKLVSEGKVKPVVRSAKLKELPEYIEKLRNNAYEGRVVFNP
- pH optimum for the oxidation of (S)-2-butanol [4]: 8.5-9.5
- pH optimum for the reduction of 2-butanone [5]: 5.5-6.5
- Specific activity [6]: 1370 units/mg
- Temperature range of high activity [7]: 25-55 °C
- Relative activity ([7]; 30 °C): 55%
- Relative activity ([7]; 37 °C): 65%
- Relative activity ([7]; 45 °C): 92%
- Relative activity ([7]; 50 °C): 100%
- Relative activity ([7]; 55 °C): 88%
- Relative activity ([7]; 60 °C): 0%
- Optimum reaction temperature ([7]; standard assay conditions): 50 °C
- Remaining activity after heat treatment [8]: more than 90%

B2: SADH-1: primary alcohol dehydrogenase derived from baker's yeast (Saccharomyces cerevisiae) (protein, UniProt P00330 2-348, looked up)
Alcohol dehydrogenase 1: SIPETQKGVIFYESHGKLEYKDIPVPKPKANELLINVKYSGVCHTDLHAWHGDWPLPVKLPLVGGHEGAGVVVGMGENVKGWKIGDYAGIKWLNGSCMACEYCELGNESNCPHADLSGYTHDGSFQQYATADAVQAAHIPQGTDLAQVAPILCAGITVYKALKSANLMAGHWVAISGAAGGLGSLAVQYAKAMGYRVLGIDGGEGKEELFRSIGGEVFIDFTKEKDIVGAVLKATDGGAHGVINVSVSEAAIEASTRYVRANGTTVLVGMPAGAKCCSDVFNQVVKSISIVGSYVGNRADTREALDFFARGLVKSPIKVVGLSTLPEIYEKMEKGQIVGRYVVDTSK
- Relative activity for 2-butanol [9]: about 1%
